Measurements from patent US8658685B2, “Methods for treatment of kallikrein-related disorders” (Activesite Pharmaceuticals, Inc., priority 2008, dated 2014).

Legend:
[1] = system: astrocytes; test: Plasma kallikrein-induced ERK phosphorylation in astrocytes; format: cell-based; settings: astrocytes exposed to plasma kallikrein
Description: (§1) We have also studied the effects of plasma kallikrein pathway activation on astrocytes. […] Exposure of astrocytes to plasma kallikrein potently stimulated ERK phosphorylation, and this action of kallikrein on astrocytes is not affected by B2-R antagonism (Hoe140). The effect of kallikrein on astrocytes was blocked by leupeptin, a protease inhibitor and C1-INH (data not shown). […] This is in contrast to the bradykinin effect, which is rapid and transient (data not shown). Plasma kallikrein's effect on ERK phosphorylation in astrocytes is dose dependent, reaching a maximal effect at 100 nM kallikrein (data not shown). […] In addition, plasma kallikrein binding to astrocytes was blocked by AS-440 (FIG. 9B) and C1-INH (data not shown).

[2] = system: blood-induced hematoma; test: Hematoma after intracerebral infusion of autologous blood in diabetic rats; format: in vivo, Sprague-Dawley rats; settings: systemic treatment, 48 h after intracerebral infusion of autologous blood
Protocol: We have compared the response to intracerebral infusion of blood in Sprague-Dawley rats with 1 mo of STZ-induced diabetes with age matched non-diabetic control rats. Fifty μL of autologous whole blood was collected from the tail vein and immediately infused 1 mm anterior, 4 mm lateral and 6 mm in depth to the bregma using a 30 gauge needle at 20 μL per minute. The infusion needle was removed 10 min after injection and the burr hole was sealed with bone wax. Forty-eight hours after intracerebral injection, the animals were perfused with saline and surface hematoma area was examined by measurement of hematoma area relative to total hemisphere area.

[3] = system: brain astrocytes; test: Bradykinin-induced ERK phosphorylation in brain astrocytes; format: cell-based
Description: as §1

[4] = system: bradykinin-induced RVP; test: Bradykinin-induced RVP in rats (vitreous fluorophotometry); format: in vivo; settings: pretreatment 2 days, 12 ug/day/200 g rat, subcutaneous Alzet pump
Description: (§2) FIGS. 3A-3B are a set of two bar graphs that show the effects of intravitreal injection of kallikrein (FIG. 3A) and bradykinin (FIG. 3B) on RVP in rats measured using vitreous fluorophotometry. Activators of the kallikrein pathway, including purified activated plasma kallikrein, factor XII (FXII), high molecular weight kininogen (HK), and bradykinin, increase retinal vascular permeability (RVP) to fluorescein. In addition, inhibitors of the kallikrein pathway, such as complement I inhibitors and α2-macroglobulin reduced RVP. Direct injection of these kallikrein pathway activators into the vitreous was observed by SLO fundus imaging of the leakage from first phase fluorescein following bolus intravenous injection (FIG. 2) and by vitreous fluorophotometry, which measure the levels of fluorescein in the vitreous 30 min after intravenous injection (FIG. 5A). […] In addition, intravitreal injection of bradykinin can acutely increase RVP (FIGS. 2A and 2B). Moreover, pretreatment of rats for 2 days with Hoe140 (Bradykinin R2 antagonist, 12 ug/day/200 g rat delivered using a subcutaneous Alzet pump) inhibited bradykinin-induced RVP (FIG. 3B).

[5] = system: AngII-induced retinal vascular permeability; test: AngII-induced retinal vascular permeability in rats; format: in vivo, rat; settings: AngII and ASP-465 via 2 Alzet pumps for 3 days; vitreous fluorophotometry
Protocol: Rats were implanted with a single subcutaneous osmotic pump containing Ang II or two pumps containing AngII and ASP-465, as indicated. RVP was measured using vitreous fluorophotometry after 3 days.
RVP was measured using Evan's blue dye method after 7 days.
We examined the effect of the kallikrein inhibitor ASP-465 on RVP induced by angiotensin II (AngII).

[6] = system: astrocytes; test: Plasma kallikrein binding to astrocytes; format: cell-based
Description: as §1

[7] = system: retinal vascular permeability (RVP); test: Retinal vascular permeability to fluorescein, kallikrein pathway inhibitors; settings: in vivo
Description: as §2, with “Activators” for “FIGS. 3A-3B are a set of two bar graphs that show the effects of intravitreal injection of kallikrein (FIG. 3A) and bradykinin (FIG. 3B) on RVP in rats measured using vitreous fluorophotometry. Activators”

Molecule | effect of kallikrein on ERK phosphorylation [1] | RVP [7] | other results
CC(=O)N[C@@H](CC(C)C)C(=O)N[C@@H](CC(C)C)C(=O)N[C@H](C=O)CCCNC(=N)N [leupeptin, reference compound] | blocked |  | 
Hoe140 [reference compound] | not affected |  | hematoma area [2]: did not reduce; bradykinin-induced ERK phosphorylation [3]: blocked; bradykinin-induced RVP [4]: inhibited
Cc1cc(C(=O)NCc2ccc(C(=N)N)cc2)c(C)n1Cc1ccncc1 [ASP-465, 2,5-Dimethyl-1-pyridin-4-ylmethyl-1H-pyrrole-3-carboxylic acid 4-carbamimidoyl-benzylamide] |  |  | RVP [5]: normal levels of RVP
C1-INH: C1-Esterase inhibitor, a serpin; major inhibitor of the classical complement pathway, contact activation system and intrinsic coagulation | blocked |  | plasma kallikrein binding to astrocytes [6]: blocked
complement I inhibitors: inhibitors of the kallikrein pathway; probably complement 1 inhibitor (C1-INH) (protein, UniProt P05155 23-500, looked up) Plasma protease C1 inhibitor: NPNATSSSSQDPESLQDRGEGKVATTVISKMLFVEPILEVSSLPTTNSTTNSATKITANTTDEPTTQPTTEPTTQPTIQPTQPTTQLPTDSPTQPTTGSFCPGPVTLCSDLESHSTEAVLGDALVDFSLKLYHAFSAMKKVETNMAFSPFSIASLLTQVLLGAGENTKTNLESILSYPKDFTCVHQALKGFTTKGVTSVSQIFHSPDLAIRDTFVNASRTLYSSSPRVLSNNSDANLELINTWVAKNTNNKISRLLDSLPSDTRLVLLNAIYLSAKWKTTFDPKKTRMEPFHFKNSVIKVPMMNSKKYPVAHFIDQTLKAKVGQLQLSHNLSLVILVPQNLKHRLEDMEQALSPSVFKAIMEKLEMSKFQPTLLTLPRIKVTTSQDMLSIMEKLEFFDFSYDLNLCGLTEDPDLQVSAMQHQTVLELTETGVEAAAASAISVARTLLVFEVQQPFLFVLWDQQHKFPVFMGRVYDPRA |  | reduced RVP | 
α2-macroglobulin: inhibitor of the kallikrein pathway (protein, UniProt P01023 24-1474, looked up) Alpha-2-macroglobulin: SVSGKPQYMVLVPSLLHTETTEKGCVLLSYLNETVTVSASLESVRGNRSLFTDLEAENDVLHCVAFAVPKSSSNEEVMFLTVQVKGPTQEFKKRTTVMVKNEDSLVFVQTDKSIYKPGQTVKFRVVSMDENFHPLNELIPLVYIQDPKGNRIAQWQSFQLEGGLKQFSFPLSSEPFQGSYKVVVQKKSGGRTEHPFTVEEFVLPKFEVQVTVPKIITILEEEMNVSVCGLYTYGKPVPGHVTVSICRKYSDASDCHGEDSQAFCEKFSGQLNSHGCFYQQVKTKVFQLKRKEYEMKLHTEAQIQEEGTVVELTGRQSSEITRTITKLSFVKVDSHFRQGIPFFGQVRLVDGKGVPIPNKVIFIRGNEANYYSNATTDEHGLVQFSINTTNVMGTSLTVRVNYKDRSPCYGYQWVSEEHEEAHHTAYLVFSPSKSFVHLEPMSHELPCGHTQTVQAHYILNGGTLLGLKKLSFYYLIMAKGGIVRTGTHGLLVKQEDMKGHFSISIPVKSDIAPVARLLIYAVLPTGDVIGDSAKYDVENCLANKVDLSFSPSQSLPASHAHLRVTAAPQSVCALRAVDQSVLLMKPDAELSASSVYNLLPEKDLTGFPGPLNDQDNEDCINRHNVYINGITYTPVSSTNEKDMYSFLEDMGLKAFTNSKIRKPKMCPQLQQYEMHGPEGLRVGFYESDVMGRGHARLVHVEEPHTETVRKYFPETWIWDLVVVNSAGVAEVGVTVPDTITEWKAGAFCLSEDAGLGISSTASLRAFQPFFVELTMPYSVIRGEAFTLKATVLNYLPKCIRVSVQLEASPAFLAVPVEKEQAPHCICANGRQTVSWAVTPKSLGNVNFTVSAEALESQELCGTEVPSVPEHGRKDTVIKPLLVEPEGLEKETTFNSLLCPSGGEVSEELSLKLPPNVVEESARASVSVLGDILGSAMQNTQNLLQMPYGCGEQNMVLFAPNIYVLDYLNETQQLTPEIKSKAIGYLNTGYQRQLNYKHYDGSYSTFGERYGRNQGNTWLTAFVLKTFAQARAYIFIDEAHITQALIWLSQRQKDNGCFRSSGSLLNNAIKGGVEDEVTLSAYITIALLEIPLTVTHPVVRNALFCLESAWKTAQEGDHGSHVYTKALLAYAFALAGNQDKRKEVLKSLNEEAVKKDNSVHWERPQKPKAPVGHFYEPQAPSAEVEMTSYVLLAYLTAQPAPTSEDLTSATNIVKWITKQQNAQGGFSSTQDTVVALHALSKYGAATFTRTGKAAQVTIQSSGTFSSKFQVDNNNRLLLQQVSLPELPGEYSMKVTGEGCVYLQTSLKYNILPEKEEFPFALGVQTLPQTCDEPKAHTSFQISLSVSYTGSRSASNMAIVDVKMVSGFIPLKPTVKMLERSNHVSRTEVSSNHVLIYLDKVSNQTLSLFFTVLQDVPVRDLKPAIVKVYDYYETDEFAIAEYNAPCSKDLGNA |  | reduced RVP | 
